Assay results taken from ChEMBL document CHEMBL1641539 (Bioorg Med Chem Lett, 2011).

Legend:
[1] = target: Mitogen-activated protein kinase 14 (Homo sapiens, UniProt Q16539); assay: Inhibition of recombinant p38alpha after 60 mins by TR-FRET assay
[2] = target: T1, Aurora kinase A (Homo sapiens) (UniProt O14965); assay: Inhibition of Aurora A at 10 uM after 60 mins by TR-FRET assay
T1 sequence (whole entry): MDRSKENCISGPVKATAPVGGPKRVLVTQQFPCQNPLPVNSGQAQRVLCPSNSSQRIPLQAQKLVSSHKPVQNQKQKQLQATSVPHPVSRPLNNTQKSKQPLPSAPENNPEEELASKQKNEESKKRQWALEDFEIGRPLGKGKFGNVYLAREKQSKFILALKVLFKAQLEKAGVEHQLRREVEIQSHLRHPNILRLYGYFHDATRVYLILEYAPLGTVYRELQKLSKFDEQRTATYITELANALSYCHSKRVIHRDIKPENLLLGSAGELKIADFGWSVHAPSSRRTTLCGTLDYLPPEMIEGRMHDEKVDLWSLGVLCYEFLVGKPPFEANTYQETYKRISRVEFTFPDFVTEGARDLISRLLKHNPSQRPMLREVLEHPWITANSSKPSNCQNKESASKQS

[3] = target: Mitogen-activated protein kinase 9 (Homo sapiens, UniProt P45984); assay: Inhibition of recombinant JNK2 after 60 mins by TR-FRET assay
[4] = target: Tyrosine-protein kinase ABL1 (Homo sapiens) (UniProt P00519); assay: Inhibition of ABL1 at 10 uM after 60 mins by TR-FRET assay
[5] = target: Leucine-rich repeat serine/threonine-protein kinase 2 (Homo sapiens) (UniProt Q5S007); assay: Inhibition of LRRK2 at 10 uM after 60 mins by TR-FRET assay
[6] = target: Protein-tyrosine kinase 2-beta (Homo sapiens) (UniProt Q14289); assay: Inhibition of PTK2B at 10 uM after 60 mins by TR-FRET assay
[7] = target: Receptor tyrosine-protein kinase erbB-4 (Homo sapiens) (UniProt Q15303); assay: Inhibition of ERBB4 at 10 uM after 60 mins by TR-FRET assay
[8] = target: Receptor-interacting serine/threonine-protein kinase 2 (Homo sapiens) (UniProt O43353); assay: Inhibition of RIPK2 at 10 uM after 60 mins by TR-FRET assay
[9] = target: Cyclin-dependent kinase 2/cyclin A (Homo sapiens) (UniProt P24941+P20248+P78396); assay: Inhibition of CDK2/cyclin A at 10 uM after 60 mins by TR-FRET assay; assay type: protein-complex assay
[10] = target: Serine/threonine-protein kinase PLK1 (Homo sapiens) (UniProt P53350); assay: Inhibition of PLK1 at 10 uM after 60 mins by TR-FRET assay
[11] = target: Cyclin-dependent kinase 5/CDK5 activator 1 (Homo sapiens) (UniProt Q00535+Q15078); assay: Inhibition of CDK5/p25 at 10 uM after 60 mins by TR-FRET assay; assay type: protein-complex assay
[12] = target: Tyrosine-protein kinase SYK (Homo sapiens) (UniProt P43405); assay: Inhibition of SYK at 10 uM after 60 mins by TR-FRET assay
[13] = target: Cyclin-dependent kinase 1/cyclin B (Homo sapiens) (UniProt P06493+P14635+Q8WWL7+O95067); assay: Inhibition of CDK1/cyclin B at 10 uM after 60 mins by TR-FRET assay; assay type: protein-complex assay
[14] = target: RAC-alpha serine/threonine-protein kinase (Homo sapiens) (UniProt P31749); assay: Inhibition of AKT1 at 10 uM after 60 mins by TR-FRET assay
[15] = target: Protein kinase C beta type (Homo sapiens) (UniProt P05771); assay: Inhibition of PRKCB1 at 10 uM after 60 mins by TR-FRET assay
[16] = target: Dual specificity tyrosine-phosphorylation-regulated kinase 1B (Homo sapiens) (UniProt Q9Y463); assay: Inhibition of DYRK1B at 10 uM after 60 mins by TR-FRET assay
[17] = target: Tyrosine-protein kinase Lck (Homo sapiens) (UniProt P06239); assay: Inhibition of LCK at 10 uM after 60 mins by TR-FRET assay
[18] = target: Platelet-derived growth factor receptor alpha (Homo sapiens) (UniProt P16234); assay: Inhibition of PDGFRA at 10 uM after 60 mins by TR-FRET assay
[19] = target: Calcium/calmodulin-dependent protein kinase type II subunit alpha (Homo sapiens) (UniProt Q9UQM7); assay: Inhibition of CAMK2A at 10 uM after 60 mins by TR-FRET assay
[20] = target: PI3-kinase p110-alpha/p85-alpha (Homo sapiens) (UniProt P27986+P42336); assay: Inhibition of p110alpha/p85alpha at 10 uM after 60 mins by TR-FRET assay; assay type: protein-complex assay
[21] = target: Serine/threonine-protein kinase PLK2 (Homo sapiens) (UniProt Q9NYY3); assay: Inhibition of PLK2 at 10 uM after 60 mins by TR-FRET assay
[22] = target: T2, Mitogen-activated protein kinase 1 (Homo sapiens, UniProt P28482); assay: Inhibition of MAPK1 at 10 uM after 60 mins by TR-FRET assay
[23] = system: RAF proto-oncogene serine/threonine-protein kinase (Homo sapiens), P04049 [Y340D,Y341D]; assay: Inhibition of RAF1 Y340D, Y341D mutant at 10 uM after 60 mins by TR-FRET assay
[24] = target: Rho-associated protein kinase 2 (Homo sapiens) (UniProt O75116); assay: Inhibition of ROCK2 at 10 uM after 60 mins by TR-FRET assay
[25] = target: Dual specificity protein kinase CLK1 (Homo sapiens) (UniProt P49759); assay: Inhibition of CLK1 at 10 uM after 60 mins by TR-FRET assay
[26] = target: Macrophage colony-stimulating factor 1 receptor (Homo sapiens) (UniProt P07333); assay: Inhibition of CSF1R at 10 uM after 60 mins by TR-FRET assay
[27] = target: Mitogen-activated protein kinase 10 (Homo sapiens, UniProt P53779); assay: Inhibition of MAPK10 at 10 uM after 60 mins by TR-FRET assay
[28] = target: T2, Mitogen-activated protein kinase 1; assay: Inhibition of recombinant ERK2 after 60 mins by TR-FRET assay
[29] = target: Insulin receptor (Homo sapiens) (UniProt P06213); assay: Inhibition of INSR at 10 uM after 60 mins by TR-FRET assay
[30] = target: Receptor-type tyrosine-protein kinase FLT3 (Homo sapiens) (UniProt P36888); assay: Inhibition of FLT3 at 10 uM after 60 mins by TR-FRET assay
[31] = target: cAMP-dependent protein kinase catalytic subunit alpha (Homo sapiens) (UniProt P17612); assay: Inhibition of PRKACA at 10 uM after 60 mins by TR-FRET assay
[32] = target: Mitogen-activated protein kinase 8 (Homo sapiens, UniProt P45983); assay: Inhibition of recombinant JNK1 after 60 mins by TR-FRET assay
Chain of Mitogen-activated protein kinase 8 (P45983 whole entry): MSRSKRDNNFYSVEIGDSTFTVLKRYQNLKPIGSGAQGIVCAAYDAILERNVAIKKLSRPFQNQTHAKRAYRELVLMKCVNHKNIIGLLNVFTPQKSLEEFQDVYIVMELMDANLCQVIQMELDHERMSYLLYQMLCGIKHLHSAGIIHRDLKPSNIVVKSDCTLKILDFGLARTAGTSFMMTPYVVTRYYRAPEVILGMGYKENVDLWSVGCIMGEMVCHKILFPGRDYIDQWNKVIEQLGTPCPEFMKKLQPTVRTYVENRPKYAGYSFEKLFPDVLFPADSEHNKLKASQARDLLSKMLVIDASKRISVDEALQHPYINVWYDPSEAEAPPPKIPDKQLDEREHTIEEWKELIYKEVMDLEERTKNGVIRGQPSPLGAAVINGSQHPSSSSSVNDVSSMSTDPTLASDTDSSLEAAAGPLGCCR

Chain of Dual specificity tyrosine-phosphorylation-regulated kinase 1B (Homo sapiens) (Q9Y463 whole entry, looked up): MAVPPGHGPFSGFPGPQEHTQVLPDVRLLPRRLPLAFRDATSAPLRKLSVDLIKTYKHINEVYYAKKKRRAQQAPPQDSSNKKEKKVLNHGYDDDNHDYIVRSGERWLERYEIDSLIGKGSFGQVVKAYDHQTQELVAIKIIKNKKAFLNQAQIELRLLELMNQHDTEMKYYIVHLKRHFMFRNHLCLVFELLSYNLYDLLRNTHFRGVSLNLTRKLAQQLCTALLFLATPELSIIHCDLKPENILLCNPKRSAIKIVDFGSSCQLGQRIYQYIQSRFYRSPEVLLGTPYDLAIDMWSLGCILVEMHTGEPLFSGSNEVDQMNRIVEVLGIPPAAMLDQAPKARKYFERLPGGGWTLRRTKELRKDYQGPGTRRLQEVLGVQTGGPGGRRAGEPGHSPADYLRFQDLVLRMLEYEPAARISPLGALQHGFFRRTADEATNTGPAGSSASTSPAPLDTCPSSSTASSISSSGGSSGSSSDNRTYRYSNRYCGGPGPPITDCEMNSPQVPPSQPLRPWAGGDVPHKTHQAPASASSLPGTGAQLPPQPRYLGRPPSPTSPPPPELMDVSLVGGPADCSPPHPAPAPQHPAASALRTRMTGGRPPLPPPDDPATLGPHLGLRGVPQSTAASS
Chain of Mitogen-activated protein kinase 14 (Q16539 whole entry): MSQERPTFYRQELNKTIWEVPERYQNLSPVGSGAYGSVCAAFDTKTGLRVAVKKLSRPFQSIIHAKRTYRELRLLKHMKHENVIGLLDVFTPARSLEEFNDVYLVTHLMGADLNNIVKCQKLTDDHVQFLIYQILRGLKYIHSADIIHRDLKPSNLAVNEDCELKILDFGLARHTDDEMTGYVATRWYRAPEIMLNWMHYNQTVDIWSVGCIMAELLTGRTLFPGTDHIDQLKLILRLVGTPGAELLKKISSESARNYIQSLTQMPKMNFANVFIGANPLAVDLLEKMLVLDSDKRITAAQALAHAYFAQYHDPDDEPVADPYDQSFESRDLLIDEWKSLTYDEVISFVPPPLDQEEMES
Chain of Serine/threonine-protein kinase PLK1 (Homo sapiens) (P53350 whole entry): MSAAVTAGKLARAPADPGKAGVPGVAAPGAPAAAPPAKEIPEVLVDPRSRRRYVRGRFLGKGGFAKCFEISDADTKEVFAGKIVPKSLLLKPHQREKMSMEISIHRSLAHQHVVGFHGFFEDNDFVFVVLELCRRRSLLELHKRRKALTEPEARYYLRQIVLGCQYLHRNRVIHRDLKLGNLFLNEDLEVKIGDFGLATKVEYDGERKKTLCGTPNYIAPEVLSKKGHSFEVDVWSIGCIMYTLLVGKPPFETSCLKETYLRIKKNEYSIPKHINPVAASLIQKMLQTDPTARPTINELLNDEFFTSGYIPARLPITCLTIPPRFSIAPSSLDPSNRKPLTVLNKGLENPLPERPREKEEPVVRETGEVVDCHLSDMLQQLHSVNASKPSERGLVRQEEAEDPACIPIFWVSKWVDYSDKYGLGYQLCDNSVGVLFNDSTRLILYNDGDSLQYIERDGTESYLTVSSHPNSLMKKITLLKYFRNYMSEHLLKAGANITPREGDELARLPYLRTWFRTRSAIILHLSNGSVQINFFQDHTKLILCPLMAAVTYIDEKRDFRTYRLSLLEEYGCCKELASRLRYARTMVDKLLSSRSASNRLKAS
Chain of RAC-alpha serine/threonine-protein kinase (Homo sapiens) (P31749 whole entry): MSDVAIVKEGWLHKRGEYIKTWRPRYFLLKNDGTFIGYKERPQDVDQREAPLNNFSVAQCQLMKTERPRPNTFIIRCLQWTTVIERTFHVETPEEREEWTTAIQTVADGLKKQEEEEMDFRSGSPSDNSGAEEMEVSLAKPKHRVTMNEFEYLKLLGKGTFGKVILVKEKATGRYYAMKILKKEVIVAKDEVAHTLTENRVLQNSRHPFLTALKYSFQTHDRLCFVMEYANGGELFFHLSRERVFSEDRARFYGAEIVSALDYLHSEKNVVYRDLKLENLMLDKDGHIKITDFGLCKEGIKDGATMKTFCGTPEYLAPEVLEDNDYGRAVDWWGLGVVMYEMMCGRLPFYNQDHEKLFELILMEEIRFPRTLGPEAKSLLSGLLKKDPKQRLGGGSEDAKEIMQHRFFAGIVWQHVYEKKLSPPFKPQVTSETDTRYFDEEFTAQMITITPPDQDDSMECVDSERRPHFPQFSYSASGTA
Chain of Receptor-type tyrosine-protein kinase FLT3 (Homo sapiens) (P36888 whole entry): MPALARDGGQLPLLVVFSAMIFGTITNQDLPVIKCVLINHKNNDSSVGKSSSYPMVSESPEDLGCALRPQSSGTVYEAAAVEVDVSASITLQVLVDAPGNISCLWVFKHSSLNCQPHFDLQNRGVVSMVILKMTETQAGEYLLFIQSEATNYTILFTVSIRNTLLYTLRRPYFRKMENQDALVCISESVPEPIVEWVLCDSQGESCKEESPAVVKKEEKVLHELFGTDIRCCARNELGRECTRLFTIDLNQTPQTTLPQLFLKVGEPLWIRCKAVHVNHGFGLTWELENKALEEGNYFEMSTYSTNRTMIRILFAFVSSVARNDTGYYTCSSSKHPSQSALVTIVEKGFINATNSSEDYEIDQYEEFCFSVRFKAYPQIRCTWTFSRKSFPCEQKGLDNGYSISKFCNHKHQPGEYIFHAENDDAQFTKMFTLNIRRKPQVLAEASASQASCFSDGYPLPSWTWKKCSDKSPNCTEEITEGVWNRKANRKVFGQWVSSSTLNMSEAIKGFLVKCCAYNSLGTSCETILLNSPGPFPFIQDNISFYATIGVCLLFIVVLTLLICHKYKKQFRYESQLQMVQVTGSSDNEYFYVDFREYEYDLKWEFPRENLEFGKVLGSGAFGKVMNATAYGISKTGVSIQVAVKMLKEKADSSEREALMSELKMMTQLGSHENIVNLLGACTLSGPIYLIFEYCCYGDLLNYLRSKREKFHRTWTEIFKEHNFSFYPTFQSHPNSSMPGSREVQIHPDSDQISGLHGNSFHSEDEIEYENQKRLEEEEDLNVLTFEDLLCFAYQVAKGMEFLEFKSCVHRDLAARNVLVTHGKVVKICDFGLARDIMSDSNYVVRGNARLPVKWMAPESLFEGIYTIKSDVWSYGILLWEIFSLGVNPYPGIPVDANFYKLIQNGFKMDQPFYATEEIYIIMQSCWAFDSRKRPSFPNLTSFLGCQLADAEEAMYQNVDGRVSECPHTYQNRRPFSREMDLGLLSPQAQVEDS
Chain of Insulin receptor (Homo sapiens) (P06213 28-758 limits assumed): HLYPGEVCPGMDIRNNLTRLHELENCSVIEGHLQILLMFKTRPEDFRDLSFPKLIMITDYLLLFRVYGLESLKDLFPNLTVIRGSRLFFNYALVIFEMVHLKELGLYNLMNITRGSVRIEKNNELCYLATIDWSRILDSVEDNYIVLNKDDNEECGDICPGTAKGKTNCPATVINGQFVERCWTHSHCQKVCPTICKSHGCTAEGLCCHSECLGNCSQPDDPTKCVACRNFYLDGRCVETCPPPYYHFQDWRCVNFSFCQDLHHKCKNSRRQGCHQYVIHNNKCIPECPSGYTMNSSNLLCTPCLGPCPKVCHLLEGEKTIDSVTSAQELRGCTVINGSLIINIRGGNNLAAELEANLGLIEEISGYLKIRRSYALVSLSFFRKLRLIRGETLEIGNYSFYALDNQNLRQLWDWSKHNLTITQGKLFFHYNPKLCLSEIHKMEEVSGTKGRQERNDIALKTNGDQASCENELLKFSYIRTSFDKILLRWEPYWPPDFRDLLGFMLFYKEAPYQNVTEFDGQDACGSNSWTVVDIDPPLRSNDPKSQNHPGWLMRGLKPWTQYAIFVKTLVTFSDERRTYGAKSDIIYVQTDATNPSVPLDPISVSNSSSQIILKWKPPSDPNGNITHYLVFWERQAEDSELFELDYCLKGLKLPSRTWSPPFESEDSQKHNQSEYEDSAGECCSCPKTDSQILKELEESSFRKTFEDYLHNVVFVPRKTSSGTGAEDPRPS
Chain of Insulin receptor (Homo sapiens) (P06213 763-1382 limits assumed): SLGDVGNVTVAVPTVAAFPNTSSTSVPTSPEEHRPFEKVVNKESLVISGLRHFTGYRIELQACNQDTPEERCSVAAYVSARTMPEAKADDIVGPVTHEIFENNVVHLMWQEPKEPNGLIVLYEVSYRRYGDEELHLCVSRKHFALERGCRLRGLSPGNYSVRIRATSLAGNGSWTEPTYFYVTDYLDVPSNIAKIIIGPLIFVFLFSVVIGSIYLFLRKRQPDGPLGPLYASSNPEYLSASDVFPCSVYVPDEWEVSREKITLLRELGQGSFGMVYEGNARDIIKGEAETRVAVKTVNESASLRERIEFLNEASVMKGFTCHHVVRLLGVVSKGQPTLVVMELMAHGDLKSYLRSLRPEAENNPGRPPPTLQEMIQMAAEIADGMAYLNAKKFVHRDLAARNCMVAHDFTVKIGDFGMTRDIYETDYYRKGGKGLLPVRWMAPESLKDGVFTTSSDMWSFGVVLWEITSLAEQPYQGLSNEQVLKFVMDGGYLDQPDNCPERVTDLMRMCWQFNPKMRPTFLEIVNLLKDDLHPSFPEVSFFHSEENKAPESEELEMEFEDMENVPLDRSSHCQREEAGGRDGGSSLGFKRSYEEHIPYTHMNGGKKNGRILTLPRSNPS

IC50 [1] [nM] | inhibition [2] [%] | IC50 [3] [nM] | inhibition [4] [%] | inhibition [5] [%] | inhibition [6] [%] | inhibition [7] [%] | inhibition [8] [%] | inhibition [9] [%] | inhibition [10] [%] | inhibition [11] [%] | inhibition [12] [%] | inhibition [13] [%] | inhibition [14] [%] | inhibition [15] [%] | inhibition [16] [%] | inhibition [17] [%] | inhibition [18] [%] | inhibition [19] [%] | inhibition [20] [%] | Compound | other results
> 50000 | 2 | 93 | 1 | 7 | -7 | -3 | 1 | -6 | 10 | 0 | 1 | 2 | -5 | 7 | 1 | -2 | -10 | 8 | -5 | O=c1n(Cc2ccccn2)nc(-c2ccnc(NC3CCOCC3)c2)n1-c1ccc2ccccc2c1 | inhibition [21]: 5%; inhibition [22]: -1%; inhibition [23]: 0%; inhibition [24]: 5%; inhibition [25]: 2%; inhibition [26]: 4%; inhibition [27]: 72%; IC50 [28]: > 50000 nM; inhibition [29]: 7%; inhibition [30]: 11%; inhibition [31]: 2%; IC50 [32]: 990 nM
> 50000 | 0 | 97 | 5 | 7 | -2 | 3 | 13 | 0 | 5 | 3 | 26 | 4 | 0 | 7 | 39 | -6 | 7 | 19 | 0 | O=c1n(C2CCOCC2)nc(-c2ccnc(NC3CCCCC3)c2)n1-c1ccc2ccccc2c1 | inhibition [21]: 26%; inhibition [22]: -1%; inhibition [23]: -3%; inhibition [24]: 9%; inhibition [25]: 4%; inhibition [26]: 7%; inhibition [27]: 86%; IC50 [28]: > 50000 nM; inhibition [29]: 10%; inhibition [30]: 8%; inhibition [31]: 13%; IC50 [32]: 420 nM
> 50000 | 30 | 250 | 5 | 25 | 2 | 3 | 6 | 35 | 19 | 24 | 14 | 10 | 3 | 11 | 22 | -3 | 1 | 11 | 49 | O=c1[nH]nc(-c2ccnc(NC3CCOCC3)c2)n1-c1ccc2ccccc2c1 | inhibition [21]: 33%; inhibition [22]: 5%; inhibition [23]: 16%; inhibition [24]: 10%; inhibition [25]: 6%; inhibition [26]: 74%; inhibition [27]: 73%; IC50 [28]: > 50000 nM; inhibition [29]: 8%; inhibition [30]: 32%; inhibition [31]: 6%; IC50 [32]: 1800 nM
> 50000 | -5 | 97 | -2 | -9 | 6 | -3 | 8 | 3 | 2 | -3 | 7 | 8 | -2 | 19 | 18 | 9 | 1 | 2 | 6 | O=c1n(Cc2ccncc2)nc(-c2ccnc(NC3CCCCC3)c2)n1-c1ccc2ccccc2c1 | inhibition [21]: 0%; inhibition [22]: 5%; inhibition [23]: -2%; inhibition [24]: 6%; inhibition [25]: 3%; inhibition [26]: 1%; inhibition [27]: 76%; IC50 [28]: > 50000 nM; inhibition [29]: 2%; inhibition [30]: 20%; inhibition [31]: 6%; IC50 [32]: 700 nM
> 50000 | 17 | 69 | 4 | 11 | -3 | 2 | 6 | 2 | 12 | 8 | 8 | 5 | -1 | 2 | 20 | -10 | 1 | 22 | 29 | O=c1[nH]nc(-c2ccnc(NC3CCCCC3)c2)n1-c1ccc2ccccc2c1 | inhibition [21]: 15%; inhibition [22]: 1%; inhibition [23]: 13%; inhibition [24]: 15%; inhibition [25]: 7%; inhibition [26]: -1%; inhibition [27]: 72%; IC50 [28]: > 50000 nM; inhibition [29]: 5%; inhibition [30]: 12%; inhibition [31]: 3%; IC50 [32]: 1000 nM
> 50000 | 10 | 130 | 17 | 29 | 11 | 16 | 1 | 3 | 27 | 15 | 70 | 4 | 0 | 10 | 76 | 4 | 12 | 38 | 34 | O=c1[nH]nc(-c2ccnc(NC3CCCOC3)c2)n1-c1ccc2ccccc2c1 (configuration not stated) | inhibition [21]: 62%; inhibition [22]: 1%; inhibition [23]: 0%; inhibition [24]: 8%; inhibition [25]: 22%; inhibition [26]: 60%; inhibition [27]: 81%; IC50 [28]: 22000 nM; inhibition [29]: 18%; inhibition [30]: 23%; inhibition [31]: 47%; IC50 [32]: 740 nM
